Source: patent US20260159527A1, “MACROCYCLIC BCL6 DEGRADERS” (DANA-FARBER CANCER INSTITUTE, INC., priority 2022, published 2026)
Like-named read-outs stand apart in the source and are kept apart here.

How the values were obtained:
[1] = from C[C@@H]1CN(c2ncc(Cl)c(Nc3cc(OCC(=O)O)c4c(c3)[nH]c(=O)n4C)n2)C[C@H](N)C1(F)F; amide bond; 14-membered ring; HATU/DIEA; DMF; 141.0 mM; 20.0 °C; 2.0 h
[2] = target: T1, BCL6 (Homo sapiens, UniProt P41182); assay: HiBiT cellular degradation assay (Promega) in Su-DHL-4 cells; assay type: cell-based; details: concentration to reach 50% degradation; endogenous BCL6 tagged with SmBiT in Su-DHL-4 cells; 24 hr of compound treatment; relative to DMSO control
T1 construct: Endogenous BCL6 was tagged with the 11-amino acid SmBiT through CRISPR/Cas9 gene editing; endogenous in cells; host or cells: Su-DHL-4 cells, CRISPR/Cas9 knock-in single cell clone
Method: DC50 (concentration to reach 50% degradation) values were determined from a cellular degradation assay (HiBiT, Promega™) in Su-DHL-4 cells (Table 1). Endogenous BCL6 was tagged with the 11-amino acid SmBiT through CRISPR/Cas9 gene editing and single cell clone selection. After 24 hr of compound treatment, cells were lysed and incubated with LgBiT protein to reconstitute intact nanoluciferase. Substrate was then added and relative luciferase units were measured. Degradation levels for each treatment were taken as a percentage compared to the control, 100% DMSO (Prism).

[3] = snar bond, 14-membered ring, DIEA, 80.0 °C, 12.0 h
[4] = 14-membered ring

| Compound | DC50 [2] [nM] | other results |
| --- | --- | --- |
| C[C@@H]1CN2C[C@H](NC(=O)COc3cc(cc4[nH]c(=O)n(C)c34)Nc3nc2ncc3Cl)C1(F)F |  | ring closure, crude yield [1]: 59% |
| CNC(=O)COc1cc2cc3cc(c2n(C)c1=O)OCCC[C@H]1CN(C[C@@H](C)C1(F)F)c1ncc(Cl)c(n1)N3 [Compound 4, 2-(((1^3S, 1^5R)-2^5-chloro-1^4,1^4-difluoro-13,41-dimethyl-4^2-oxo-4^1,4^2-dihydro-5-oxa-3-aza-4(6,8)-quinolina-2(2,4)-pyrimidina-1 (1,3)-piperidinacyclooctaphane-4^3-yl)oxy)-N-methylacetamide] | 0.68 | ring closure, yield after HPLC ([3]; from CNC(=O)COc1cc2cc(Nc3nc(Cl)ncc3Cl)cc(OCCC[C@H]3CNC[C@@H](C)C3(F)F)c2n(C)c1=O, DMF, 140.0 mM): 12% |
| C[C@H]1CN2C[C@@H](OCCOc3cc(cc4[nH]c(=O)n(C)c34)Nc3nc2ncc3Cl)C1(F)F |  | ring closure, isolated yield ([4]; from C[C@H]1CNC[C@@H](OCCOc2cc(Nc3nc(Cl)ncc3Cl)cc3[nH]c(=O)n(C)c23)C1(F)F, snar bond, DIEA, DMSO, 49.7 mM, 80.0 °C, 24.0 h): 30% |
| C[C@@H]1C[C@H]2CN(C1)c1ncc(Cl)c(n1)Nc1cc(c3c(c1)[nH]c(=O)n3C)OCCN2 |  | ring closure, isolated yield ([4]; from C[C@@H]1C[C@H](N)CN(c2ncc(Cl)c(Nc3cc(OCCCl)c4c(c3)[nH]c(=O)n4C)n2)C1, amine bond, K2CO3/NaI, DMF, 11.5 mM, 100.0 °C, 36.0 h): 42% |
| CC1CN2CC(NC(=O)COc3cc(cc4[nH]c(=O)n(C)c34)Nc3nc2ncc3F)C1(F)F (stereo not shown) |  | ring closure, isolated yield ([4]; from CC1CN(c2ncc(F)c(Nc3cc(OCC(=O)O)c4c(c3)[nH]c(=O)n4C)n2)CC(N)C1(F)F, amide bond, HATU/DIEA, DMF, 148.0 mM, 15.0 °C, 2.0 h): 74% |
| C[C@H]1CN2C[C@@H](CCCOc3cc(cc4[nH]c(=O)n(C)c34)Nc3nc2ncc3Cl)C1(F)F [Compound 27, (1^3R, 1^5S)-2^5-chloro-1^4,1^4-difluoro-1^5,4^3-dimethyl-4^2,4^3-dihydro-4^1H-5-oxa-3-aza-4(6,4)-benzo[d]imidazola-2(2,4)-pyrimidina-1 (1,3)-piperidinacyclooctaphan-4^2-one] | > 400 | ring closure, isolated yield ([4]; from C[C@H]1CNC[C@@H](CCCOc2cc(Nc3nc(Cl)ncc3Cl)cc3[nH]c(=O)n(C)c23)C1(F)F, snar bond, DIEA, DMSO, 40.6 mM, 80.0 °C, 12.0 h): 63% |
| C[C@H]1C[C@@H]2CN(C1)c1ncc(Cl)c(n1)Nc1cc(c3c(c1)[nH]c(=O)n3C)OCCO2 |  | ring closure, isolated yield ([4]; from C[C@@H]1CNC[C@H](OCCOc2cc(Nc3nc(Cl)ncc3Cl)cc3[nH]c(=O)n(C)c23)C1, snar bond, DIEA, DMSO, 18.4 mM, 80.0 °C, 12.0 h): 13% |
| C[C@@H]1CN2C[C@H](NCCOc3cc(cc4c3n(C)c(=O)n4CC[S@@](C)(=N)=O)Nc3nc2ncc3Cl)C1(F)F [Compound 44] | 18.9 |  |
| C[C@@H]1CN2C[C@H](NCCOc3cc(cc4c3n(C)c(=O)n4CCC(C)(C)O)Nc3nc2ncc3Cl)C1(F)F [Compound 14, (1^3S,1^5R)-2^5-chloro-1^4,1^4-difluoro-4^1-(3-hydroxy-3-methylbutyl)-1^5,4^3-dimethyl-4^2,4^3-dihydro-41 H-5-oxa-3,8-diaza-4(6,4)-benzo[d]imidazola-2(2,4)-pyrimidina-1 (1,3)-piperidinacyclooctaphan-4^2-one] | 2.9 |  |
| C[C@@H]1CN2C[C@H](CCCOc3cc(cc4c3n(C)c(=O)n4CCC(C)(C)O)Nc3nc2ncc3Cl)C1(F)F [Compound 10, (1^3S,1^5R)-2^5-chloro-1^4,1^4-difluoro-4^1-(3-hydroxy-3-methylbutyl)-1^5,4^3-dimethyl-4^2, 4^3-dihydro-4^1H-5-oxa-3-aza-4(6,4)-benzo[d]imidazola-2(2,4)-pyrimidina-1 (1,3)-piperidinacyclooctaphan-4^2-one] | 11 |  |
| C[C@H]1CN2C[C@@H](CCCOc3cc(cc4c3n(C)c(=O)c(=O)n4C[C@H]3C[C@H](O)C3)Nc3nc2ncc3Cl)C1(F)F [Compound 19-1, (1^3R, 1^5S)-2^5-Chloro-1^4, 1^4-difluoro-4^1-(((1r, 3R)-3-hydroxycyclobutyl)methyl)-1^5, 4^4-dimethyl-4^1,4^2,4^3,4^4-tetrahydro-5-oxa-3-aza-4(7,5)-quinoxalina-2(2,4)-pyrimidina-1 (1,3)-piperidinacyclooctaphane-4^2,4^3-dione] | > 400 |  |
| C[C@@H]1CN2C[C@H](NCCOc3cc(cc4c3n(C)c(=O)n4C[C@@H](O)C(C)(C)O)Nc3nc2ncc3Cl)C1(F)F [Compound 41] | 1 |  |
| C[C@H]1CN2C[C@@H](CCCOc3cc(cc4c3n(C)c(=O)c(=O)n4C[C@H]3C[C@@H](O)C3)Nc3nc2ncc3Cl)C1(F)F [Compound 19-2, (1^3R, 1^5S)-2^5-chloro-1^4,1^4-difluoro-4^1-(((1s,3S)-3-hydroxycyclobutyl)methyl)-1^2,4^4-dimethyl-4^2,4^2,4^3,4^4-tetrahydro-5-oxa-3-aza-4(7,5)-quinoxalina-2(2,4)-pyrimidina-1 (1,3)-piperidinacyclooctaphane-4^2,4^3-dione] | > 400 |  |
| C[C@H]1C[C@@H]2CN(C1)c1ncc(Cl)c(n1)Nc1cc(c3c(c1)n(CCC(C)(C)O)c(=O)n3C)OCCO2 [Compound 12, (1^3R, 1^5S)-2^5-chloro-4^1-(3-hydroxy-3-methylbutyl)-1^5,4^3-dimethyl-4^2,4^3-dihydro-4^1H-5,8-dioxa-3-aza-4(6,4)-benzo[d]imidazola-2(2,4)-pyrimidina-1 (1,3)-piperidinacyclooctaphan-4^2-one] | 2 |  |
| C[C@@H]1CN2C[C@H](CCCOc3cc(cc4c3n(C)c(=O)n4C)Nc3nc2ncc3Cl)C1(F)F [Compound 29, (1^3S,1^5R)-2^5-chloro-1^4,1^4-difluoro-1^5,4^14^3-trimethyl-4^2,4^3-dihydro-4^1H-5-oxa-3-aza-4(6,4)-benzo[d]imidazola-2(2,4)-pyrimidina-1 (1,3)-piperidinacyclooctaphan-4^2-one] | 76 |  |
| CNC(=O)COc1cc2cc3cc(c2n(C)c1=O)OCCOC1CC(C)CN(C1)c1ncc(Cl)c(n1)N3 (stereo not shown) [Compound 2] | 0.34 |  |
| C[C@H]1CN2C[C@@H](CCCOc3cc(cc4c3n(C)c(=O)n4C)Nc3nc2ncc3Cl)C1(F)F [Compound 30, (1^3R155)-2^5-chloro-1^4,1^4-difluoro-1^5,4^14^3-trimethyl-4^2,4^3-dihydro-4^1H-5-oxa-3-aza-4(6,4)-benzo[d]imidazola-2(2,4)-pyrimidina-1 (1,3)-piperidinacyclooctaphan-4^2-one] | > 400 |  |
| CNC(=O)COc1cc2cc3cc(c2n(C)c1=O)OCCO[C@@H]1C[C@H](C)CN(C1)c1ncc(Cl)c(n1)N3 [Compound 6, 2-(((1^3R, 1^5S)-2^5-chloro-1^5,4^1-dimethyl-4^2-oxo-4^1, 4^2-dihydro-5,8-dioxa-3-aza-4(6.8)-quinolina-2(2,4)-pyrimidina-1 (1,3)-piperidinacyclooctaphane-4^3-yl)oxy)-N-methylacetamide] | 0.61 | ring closure, yield after HPLC ([3]; from CNC(=O)COc1cc2cc(Nc3nc(Cl)ncc3Cl)cc(OCCO[C@H]3CNC[C@@H](C)C3)c2n(C)c1=O, DMSO, 36.0 mM): 12% |
| C[C@H]1CN2C[C@@H](NCCOc3cc(cc4c3n(C)c(=O)n4CCC(C)(C)O)Nc3nc2ncc3Cl)C1(F)F [Compound 35, (1^3R, 1^5S)-1^4,1^4,2^5-Trifluoro-4^1-(3-hydroxy-3-methylbutyl)-1^5,4^3-dimethyl-4^2,4^3-dihydro-4^1H-5-oxa-3,8-diaza-4(6,4)-benzo[d]imidazola-2(2,4)-pyrimidina-1 (1,3)-piperidinacyclooctaphan-4^2-one] | > 400 |  |
| C[C@@H]1CN2C[C@H](CCCOc3cc(cc4[nH]c(=O)n(C)c34)Nc3nc2ncc3Cl)C1(F)F [Compound 26, (1^3S,1^3R)-2^5-chloro-1^4,1^4-difluoro-1^5,4^3-dimethyl-4^2,4^3-dihydro-4 H-5-oxa-3-aza-4(6,4)-benzo[d]imidazola-2(2,4)-pyrimidina-1 (1,3)-piperidinacyclooctaphan-4^2-one] | 72 | ring closure, isolated yield ([4]; from C[C@@H]1CNC[C@H](CCCOc2cc(Nc3nc(Cl)ncc3Cl)cc3[nH]c(=O)n(C)c23)C1(F)F, snar bond, DIEA, DMSO, 27.1 mM, 80.0 °C, 12.0 h): 64% |
| C[C@@H]1C[C@H]2CN(C1)c1ncc(Cl)c(n1)Nc1cc(c3c(c1)[nH]c(=O)n3C)OCCO2 |  | ring closure, isolated yield ([4]; from C[C@H]1CNC[C@@H](OCCOc2cc(Nc3nc(Cl)ncc3Cl)cc3[nH]c(=O)n(C)c23)C1, snar bond, DIEA, DMSO, 38.3 mM, 80.0 °C, 12.0 h): 12% |
| C[C@@H]1CN2C[C@H](NCCOc3cc(cc4c3n(C)c(=O)n4CCC3(O)COC3)Nc3nc2ncc3Cl)C1(F)F [Compound 45] | 8.7 |  |
| C[C@@H]1CN2C[C@H](NCCOc3cc(cc4c3n(C)c(=O)n4CC[S@](C)(=N)=O)Nc3nc2ncc3Cl)C1(F)F [Compound 43] | 11.3 |  |
| CNC(=O)COc1cc2cc3cc(c2n(C)c1=O)OCCNC1CN(CC(C)C1(F)F)c1ncc(Cl)c(n1)N3 (stereo not shown) [Compound 3] | 0.36 |  |
